Reference: patent US6242494A, “Substituted β-amino acid inhibitors of methionine aminopeptidase-2” (Abbott Laboratories, priority 1999, dated 2001)
Structures can show the parent of a compound that is named as a salt.

biological target: T1, methionine aminopeptidase-2 (MetAP2) (Homo sapiens, UniProt P50579); assay: Inhibition of MetAP2 enzyme activity (96-well, Met-Ala-Ser substrate, L-amino acid oxidase/peroxidase/ortho-dianisidine, 450 nm); assay type: biochemical; details: IC50, recombinant MetAP2 4 μg/mL, pH 7.4, Met-Ala-Ser substrate, 20 minutes
T1 construct: made in house; host or cells: insect cells, baculovirus system (secreted, purified from culture supernatant)
T1 sequence (P50579 whole entry): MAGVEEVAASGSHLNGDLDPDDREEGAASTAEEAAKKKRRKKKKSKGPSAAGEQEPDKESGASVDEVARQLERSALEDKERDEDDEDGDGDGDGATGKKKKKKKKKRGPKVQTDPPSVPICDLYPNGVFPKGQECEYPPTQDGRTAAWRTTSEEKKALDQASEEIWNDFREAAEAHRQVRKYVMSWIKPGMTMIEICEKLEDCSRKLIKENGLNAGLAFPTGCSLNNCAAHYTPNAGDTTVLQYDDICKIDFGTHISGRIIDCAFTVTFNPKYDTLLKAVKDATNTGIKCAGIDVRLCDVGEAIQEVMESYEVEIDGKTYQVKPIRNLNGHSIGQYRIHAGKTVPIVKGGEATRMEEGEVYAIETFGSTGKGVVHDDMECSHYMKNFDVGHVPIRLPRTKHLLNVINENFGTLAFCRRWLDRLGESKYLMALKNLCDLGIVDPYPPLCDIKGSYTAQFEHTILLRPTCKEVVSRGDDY

| Compound | IC50 |
| --- | --- |
| COc1cccc(CCNC(=O)C(O)[C@H](N)CC2CCCCC2)c1 (mixture of isomers) [Example 196, (2RS,3R)-3-amino-4-cyclohexyl-2-hydroxy-N-(3-methoxyphenethyl)butanamide hydrochloride] | 0.82 µM |
| N[C@H](CC1CCCCC1)C(O)C(=O)NCCNC(=O)OCc1ccccc1 (some centres unmarked) [Example 78, hydrochloride] | 1.8 µM |
| CC(=O)OC[C@H](C)NC(=O)C(O)[C@H](N)CC1CCCCC1 (some centres unmarked) [Example 47] | 1.5 µM |
| COC(=O)c1ccc(COC(=O)[C@H](C)NC(=O)C(O)[C@H](N)CC2CCCCC2)cc1 (stereo partly drawn) [Example 94, (2RS,3R)-3-Amino-2-hydroxy-4-cyclohexyl)butanoyl-L-alanine 4-methoxycarbonylbenzyl Ester Hydrochloride] | 0.91 µM |
| CCOC(=O)[C@H](C)NC(=O)C(O)[C@H](N)Cc1ccccc1 (stereo partly drawn) [Example 26, (2RS,3R,1'S)-N-((1-ethoxycarbonyl)ethyl)-3-amino-2-hydroxy-4-phenyl-butanamide hydrochloride] | 4.7 µM |
| CC(C)OCCCNC(=O)C(O)[C@H](N)CC1CCCCC1 (mixture of isomers) [Example 213, (2RS,3R)-3-amino-4-cyclohexyl-2-hydroxy-N-(3-isopropoxypropyl)butanamide Hydrochloride] | 2.6 µM |
| COc1ccc(OC)c(NC(=O)C(O)[C@H](N)CC2CCCCC2)c1 (mixture of isomers) [Example 177, (2RS,3R)-3-amino-4cyclohexyl-N-(2,5-dimethoxyphenyl)-2-hydroxybutanamide hydrochloride] | 2 µM |
| CSCC[C@@H](N)C(O)C(=O)NCCc1cccnc1 (mixture of isomers) [Example 32, (2RS,3R)-N-(2-(3-pyridyl)ethyl)-3-amino-2-hydroxy-5-(methylthio)pentanamide] | 1.4 µM |
| C[C@H](NC(=O)C(O)[C@H](N)CC1CCCCC1)C(=O)OCc1ccc(C(F)(F)F)cc1 (stereo partly drawn) [Example 95, (2RS,3R)-3-Amino-2-hydroxy-4-cyclohexyl)butanoyl-L-alanine 4-trifluoromethylbenzyl Ester Hydrochloride] | 5.2 µM |
| CCOc1cccc(NC(=O)C(O)[C@H](N)CC2CCCCC2)c1 (mixture of isomers) [Example 224, (2RS,3R)-3-amino-4-cyclohexyl-N-(3-ethoxyphenyl)-2-hydroxybutanamide Hydrochloride] | 0.43 µM |
| N[C@H](CC1CCCCC1)C(O)C(=O)Nc1cc(Cl)cc(Cl)c1 (mixture of isomers) [Example 112, (2RS,3R)-3-Amino-4-cyclohexyl-N-(3,5-dichlorophenyl)-2-hydroxybutanamide Hydrochloride] | 1.5 µM |
| COc1ccc(NC(=O)C(O)[C@H](N)CC2CCCCC2)cc1 (mixture of isomers) [Example 145, (2RS,3R)-3-amino-4-cyclohexyl-2-hydroxy-N-(4-methoxyphenyl)butanamide] | 1.2 µM |
| C[C@H](NC(=O)C(O)[C@H](N)CC1CCCCC1)c1nc(C(=O)O)cs1 (stereo partly drawn) [Example 75, (2RS,3R)-3-amino-2-hydroxy-4-cyclohexyl)butanoyl-(4-carboxyl-2-(1'amino)ethyl thizole hydrochloride] | 9.4 µM |
| N[C@H](CC1CCCCC1)C(O)C(=O)NCCCN1CCCC1=O (mixture of isomers) [Example 102, (2RS,3R)-3-Amino-4-cyclohexyl-2-hydroxy-N-(3-(2-oxo-1-pyrrolidinyl)propyl)butanamide Hydrochloride] | 13 µM |
| N[C@H](CC1CCCCC1)C(O)C(=O)N[C@@H](CO)C(=O)OCc1ccc([N+](=O)[O-])cc1 (stereo partly drawn) [Example 138, 4-nitrobenzyl (2RS,3R,2'S)-2-((3-amino-4-cyclohexyl-2-hydroxybutanoyl)amino-3-hydroxypropanoate trifluoroacetate] | 1.6 µM |
| C[C@@H](c1cccc2ccccc12)N(C)C(=O)C(O)[C@H](N)CC1CCCCC1 (mixture of isomers) [Example 219, (2RS,3R)-3-amino-4-cyclohexyl-2-hydroxy-N-methyl-N-((1S)-1-(1-naphthyl)ethyl)butanamide Hydrochloride] | 1.8 µM |
| CCSCC[C@@H](NCC(=O)OC)C(O)C(=O)NCCCCc1ccccc1 (stereo partly drawn) [Example 44, (2RS,3R)-N-((Phenylbutyryl)-3-methoxycarbonylmethylamino-2-hydroxy-4-ethylthio)pentanamide hydrochloride] | 13 µM |
| N[C@H](CC1CCCCC1)C(O)C(=O)NCCc1cccc(Cl)c1 (mixture of isomers) [Example 199, (2RS,3R)-3-amino-N-(3-chlorophenethyl)-4-cyclohexyl-2-hydroxybutanamide hydrochloride] | 1 µM |

| Compound | IC50 |
| --- | --- |
| CC(=O)OC[C@@H](C)NC(=O)C(O)[C@H](N)CC1CCCCC1 (stereo partly drawn) [Example 52, (2RS,3R,2'R)-N-((2-acetoxypropyl)-3-amino-2-hydroxy-4-cyclohexyl)butanamidehydrochloride] | 6.1 µM |
| N[C@H](CC1CCCCC1)C(O)C(=O)Nc1ccc(N2CCOCC2)cc1 (mixture of isomers) [Example 215, (2RS,3R)-3-amino-4-cyclohexyl-2-hydroxy-N-(4-(4-morpholinyl)phenyl)butanamide Hydrochloride] | 1.3 µM |
| CCOC(=O)[C@H](CO)NC(=O)C(O)[C@H](N)CC1CCCCC1 (stereo partly drawn) [Example 46, (2RS,3R,1'S)-N-((2-hydroxy-1-ethoxycarbonylethyl)-3-amino-2-hydroxy-4-cyclohexyl)butanamide hydrochloride] | 1.1 µM |
| NCCNC(=O)C(O)[C@H](N)CC1CCCCC1 (stereo partly drawn) [Example 83, (2RS,3R)-3-amino-2-hydroxy-4-cyclohexyl)butanoyl-(2-aminoethyl)amide dihydrochloride] | 26 µM |
| N[C@H](CC1CCCCC1)C(O)C(=O)NCCc1c(Cl)cccc1Cl (stereo partly drawn) [Example 165, (2RS,3R)-3-amino-4-cyclohexyl-N-(2,6-dichlorophenethyl)-2-hydroxybutanamidehydrochloride] | 0.26 µM |
| N[C@H](CC1CCCCC1)C(O)C(=O)NC1CCCC1 (mixture of isomers) [Example 207, (2RS,3R)-3-amino-4-cyclohexyl-N-cyclopentyl-2-hydroxybutanamide Hydrochloride] | 4.1 µM |
| CSCC[C@@H](N)C(O)C(=O)NCCc1ccc(Oc2ccccc2)cc1 (mixture of isomers) [Example 11, (2RS,3R)-N-(2-(4-phenoxyphenyl)ethyl)-3-amino-2-hydroxy-5-(methylthio)pentanamide hydrochloride] | 2.6 µM |
| COc1cc(Nc2ccccc2)ccc1NC(=O)C(O)[C@H](N)CC1CCCCC1 (mixture of isomers) [Example 174, (2RS,3R)-3-amino-N-(4-anilino-2-methoxyphenyl)-4-cyclohexyl-2-hydroxybutanamide hydrochloride] | 1.5 µM |
| C[C@H](NC(=O)C(O)[C@H](N)Cc1ccccc1)C(=O)OCc1ccccc1 (some centres unmarked) [Example 105, Hydrochloride] | 19 µM |
| C[C@@H](NC(=O)C(O)[C@H](N)CC1CCCCC1)c1cccc2ccccc12 (mixture of isomers) [Example 134, (2RS,3R)-3-amino-4-cyclohexyl-2-hydroxy-N-((1R)-1-(1-naphthyl)ethyl)butanamide hydrochloride] | 3.1 µM |
| N[C@H](CC1CCCCC1)C(O)C(=O)NCCc1ccc(Oc2ccccc2)cc1 (mixture of isomers) [Example 168, (2RS,3R)-3-amino-4-cyclohexyl-2-hydroxy-N-(4-phenoxyphenethyl)butanamide hydrochloride] | 1.5 µM |
| COc1ccc(C(C)(C)C)cc1NC(=O)C(O)[C@H](N)CC1CCCCC1 (mixture of isomers) [Example 182, (2RS,3R)-3-amino-N-(5-(tert-butyl)-2-methoxyphenyl)-4-cyclohexyl-2-hydroxybutanamide hydrochloride] | 8 µM |
| C[C@H](NC(=O)C(O)[C@H](N)CC1CCCCC1)C(=O)NCCCN1CCCC1=O (stereo partly drawn) [Example 64, ((b 2RS,3R)-3-amino-2-hydroxy-4-cyclohexyl)butanoyl-L-alanyl-(2-pyrrolidinopropyl)amide hydrochloride] | 19 µM |
| N[C@H](CC1CCCCC1)C(O)C(=O)NCc1cccc(Cl)c1 (mixture of isomers) [Example 188, (2RS,3R)-3-amino-N-(3-chlorobenzyl)-4-cyclohexyl-2-hydroxybutanamide hydrochloride] | 1.6 µM |
| COc1cc(CCNC(=O)[C@H](C)NC(=O)C(O)[C@H](N)CC2CCCCC2)ccc1O (stereo partly drawn) [Example 66, ((2RS,3R)-3-amino-2-hydroxy-4-cyclohexyl)butanoyl-L-alanyl-(3-O-methoxydopamine)amide hydrochloride] | 10 µM |
| Cc1ccc(S(=O)(=O)NCCCCNC(=O)C(O)[C@H](N)CC2CCCCC2)cc1 (stereo partly drawn) [Example 80, (2RS,3R)-3-amino-2-hydroxy-4-cyclohexyl)butanoyl-(4-(4-toluenesulfonyl)aminobutyl)amide hydrochloride] | 1.3 µM |
| C[C@H](NC(=O)C(O)[C@H](N)CC1CCCCC1)C(=O)Nc1cc([N+](=O)[O-])ccc1O (stereo partly drawn) [Example 69, ((2RS,3R)-3-amino-2-hydroxy-4-cyclohexyl)butanoyl-L-alanyl-(2-hydroxy-5-nitrophen-1-yl)amide hydrochloride] | 5.3 µM |

same assay, conditions: recombinant MetAP2 4 μg/mL, pH 7.4, Met-Ala-Ser substrate, 20 minutes

| Compound | IC50 |
| --- | --- |
| COc1ccc2[nH]cc(CCNC(=O)[C@H](C)NC(=O)C(O)[C@H](N)CC3CCCCC3)c2c1 (stereo partly drawn) [Example 65, ((2RS,3R)-3-amiono-2-hydroxy-4-cyclohexyl)butanoyl-L-alanyl-(5-methoxytryptamine)amide hydrochloride] | 5.6 µM |

same assay, conditions: recombinant MetAP2 4 μg/mL, pH 7.4, Met-Ala-Ser substrate, 20 minutes; read-out: IC50

| IC50 | Compound |
| --- | --- |
| 1.4 µM | (2RS,3R)-3-Amino-2-hydroxy-4-cyclohexyl)butanoyl-L-alanine Cyclopropyl Ester Hydrochloride [Example 92] |
| 0.48 µM | (((2RS,3R)-3-amino-4cyclohexyl-2-hydroxybutanoyl)amino)(2,5-dimethoxybenzyl)chloronium hydrochloride [Example 163] |
